Measurements published in patent EP0421733B1, “Amphotericin B lipid complex” (THE LIPOSOME COMPANY, INC., priority 1989, dated 1991).
Read-outs that look alike come from different tables or passages of the source.

Tested on: C. albicans SC 5314
Test: Single-dose intravenous treatment of systemic candidiasis in mice
Format: in vivo
Details: Candida albicans, SC5314, iv
Method: Female Swiss Webster mice were infected intraveneously with 5 x 10⁶ blastospores of C. albicans SC 5314 and treated one time with either ABLC or amphotericin B, five hours later. The amphotericin B was diluted in 5% dextrose for intravenous injection into the experimental mice. The ABLC formulation was also administered intravenously.

Compound: C[C@@H]1[C@H](O)[C@@H](C)/C=C/C=C/C=C/C=C/C=C/C=C/C=C/[C@H](O[C@@H]2O[C@H](C)[C@@H](O)[C@H](N)[C@@H]2O)C[C@@H]2O[C@](O)(C[C@@H](O)C[C@@H](O)[C@H](O)CC[C@@H](O)C[C@@H](O)CC(=O)O[C@H]1C)C[C@H](O)[C@H]2C(=O)O [Amphotericin B]
- ED50 (5 h, read-out: ED₅₀(mg AMB/kg) Clearance): 0.7 mg/kg
- ED50 (5 h, read-out: ED₅₀(mg AMB/kg) Survival): 0.46 mg/kg
- ED50 (read-out: survival ED₅₀): 0.46 mg/kg
- ED50 (single i.v. dose, infected mice, read-out: ED₅₀ based on kidney clearance): 0.7 mg/kg
